Measurements published in patent US7132546B2, “Aniline derivatives or salts thereof and cytokine production inhibitors containing the same” (Ishihara Sangyo Kaisha, Ltd., priority 2000, dated 2006).

Assays:
[1] = system: interferon γ (IFN-γ) production; test: Cytokine production inhibitory effect: IFN-γ production by murine spleen cells treated with anti-mouse CD3 antibody and IL-2 (ELISA); format: cell-based, Balb/c mice; settings: test compound 100 ppm, anti-CD3 antibody + IL-2, 40 to 48 hours, read-out: IFN-γ production inhibitory ratio (%)
Description: (§1) Murine spleen cells were treated with anti-mouse CD3 antibody and IL-2 to induce cytokine production. The test compounds were added to the cytokine production system to evaluate their inhibitory effect. Namely, anti-mouse CD3 antibody adjusted to from 10 to 20 μg/ml with borate buffered physiological saline (pH 8.5) was pipetted into a 96-well cell culture plate in an amount of 50 μl/well and left to stand at 4° C. for 18 hours. The unreacted solution was removed, washing with Hank's buffer solution was carried out once, and IL-2 adjusted to 10 ng/ml with a RPMI liquid containing 10% fetal bovine serum (FCS) was pipetted in an amount of 50 μl/well. For the negative control group, a solution alone without anti-CD3 antibody nor IL-2 was applied. Then, the diluted solution of each of the test compounds (concentration: 100 ppm unless otherwise specified) was pipetted in an amount of 50 μl/well, and a cell suspension of 1×10^7 cells/ml, prepared from spleen of Balb/c mice (female, 7 to 10 week old) was pipetted thereinto in an amount of 100 μl/well. After cultivation in an incubator (37° C., 5% carbon dioxide gas) for from 40 to 48 hours, the culture supernatant was recovered to measure the cytokine production amount by ELISA method.
(§2) With respect to interleukin 5 (IL-5) as a typical Th2 type cytokine and interferon γ (IFN-γ) as a typical Th1 type cytokine, measurements were carried out by the following methods, respectively. Namely, quantitative determination of IL-5 was carried out by the following ELISA method. First, rat anti-mouse IL-5 antibody (Endogen Code No. MM-550C) as a primary antibody was diluted with carbonate buffer solution (pH 9.5) to 1 μg/ml, and spread in a 96 well plate (IWAKI, Code No. 3860-096) in an amount of 50 μl/well for coating at 4° C. overnight (16 to 24 hours). Then, the plate was subjected to blocking at 37° C. for 2 hours by phosphate buffered physiological saline containing 10% FCS (pH 7.2) (blocking buffer solution) (250 μl/well). The plate was washed with PBS (washing buffer) containing 0.05% Tween 20 (Nacalai Tesque, Code No. 281-51) four times, and a diluted liquid of the culture supernatant was spread in an amount of 50 μl/well, followed by incubation at room temperature for 1 hour. For preparation of a standard line, recombinant mouse IL-5 (R&D systems, Code No. 405-ML) was employed. The plate was washed with a washing buffer four times, and biotin-labeled rat anti-mouse IL-5 antibody (Pharmingen, Code No. 18062D) as a secondary antibody diluted to 0.5 μg/ml with a blocking buffer containing 0.05% Tween 20 was added thereto (50 μl/well), followed by incubation at room temperature for 1 hour. The plate was washed with a washing buffer four times, strept avidin-labeled peroxidase (ProZyme, Code No. CJ30H001) diluted 800 times with a blocking buffer containing 0.05% Tween 20 was added thereto (50 μl/well), followed by reaction at room temperature for 15 minutes. The plate was washed with a washing buffer four times, and a […] substrate solution (SIGMA, Code No. T-8665) was added thereto in an amount of 100 μl/well for color developing for from 10 to 20 minutes. A 1M sulfuric acid solution was added thereto in an amount of 100 μl/well to terminate the reaction, and absorption (wavelength 450 nm) was measured by means of micro plate reader (SPECTRA max, Wako Pure Chemicals Industries, Ltd.). Quantitative determination of IFN-γ was carried out in the same manner as the measurement of IL-5, employing rat anti-mouse IFN-γ antibody (Pharmingen, Code No. 18181D) and biotin labeled rat anti-mouse IFN-γ antibody (Pharmingen, Code NO. 18112D), as a primary antibody and a secondary antibody, respectively. For preparation of a standard line, recombinant mouse IFN-γ (GENZYME, Code No. 3485) was employed. The experiment was carried out in duplicate, and the average of the cytokine production amount was obtained. […]

[2] = system: interleukin 5 (IL-5) production; test: Cytokine production inhibitory effect: IL-5 production by murine spleen cells treated with anti-mouse CD3 antibody and IL-2 (ELISA); format: cell-based, Balb/c mice; settings: test compound 100 ppm, anti-CD3 antibody + IL-2, 40 to 48 hours, read-out: IL-5 production inhibitory ratio (%)
Description: as §1, §2

Row | Compound | melting point [°C] | inhibition at 100 ppm [1] [%] | inhibition at 100 ppm [2] [%]
1 | Cc1cc(NC(=O)c2cc([N+](=O)[O-])ccc2Cl)ccc1Nc1ncc(C(F)(F)F)cc1Cl [compound 148] | 189 to 192 | 81 | 94
2 | O=C(Nc1ccc2ncsc2c1)c1cc([N+](=O)[O-])ccc1Cl [compound 140] | 242 to 244 | 100 | 100
3 | Cc1cc(Oc2ncc(C(F)(F)F)cc2Cl)c(C)cc1NC(=O)c1cc([N+](=O)[O-])ccc1Cl [compound 105] | 296 to 298 | 25 | 55
4 | O=C(NS(=O)(=O)c1ccc(NC(=O)c2cc([N+](=O)[O-])ccc2Cl)cc1)c1ccccc1 [compound 146] | 235 to 237 | 43 | 62
5 | COc1ccc([N+](=O)[O-])c(OC)c1C(=O)Nc1cc(Cl)cc(Cl)c1 [Compound No. 4] | 173 | 76 | 47
6 | Cc1cc(NC(=O)c2cc([N+](=O)[O-])ccc2Br)ccc1Oc1ncc(C(F)(F)F)cc1Cl [compound 120] | 246 to 248 | 35 | 84
7 | O=C(Nc1ccc(Nc2ncc(C(F)(F)F)cc2Cl)cc1)c1cc([N+](=O)[O-])ccc1Cl [compound 132] | 215 to 218 | 100 | 99
8 | O=C(Nc1ccc(OC2C3CC4CC(C3)CC2C4)cc1)c1cc([N+](=O)[O-])ccc1Cl (stereo not drawn) [compound 111] | 178 to 180 | 99 | 99
9 | Cc1cc(C23CC4CC(CC(C4)C2)C3)ccc1NC(=O)c1ccccc1 [compound 61] | 198 | 89 | 79
10 | Cc1cc(C23CC4CC(CC(C4)C2)C3)ccc1NC(=O)c1cc(S(C)(=O)=O)ccc1Cl [compound 75] | 96 to 100 | 100 | 100
11 | Cc1cc(C23CC4CC(CC(C4)C2)C3)ccc1NC(=O)c1ccc([N+](=O)[O-])cc1Cl [compound 55] | 200 | 100 | 96
12 | O=[N+]([O-])c1ccc(Cl)c(S(=O)(=O)Nc2ccc(Oc3ncc(C(F)(F)F)cc3Cl)cc2)c1 [compound 80] | 171 | 100 | 100
13 | Cc1cc(NC(=O)c2cc([N+](=O)[O-])ccc2Cl)ccc1Oc1ncc(C(F)(F)F)cc1Cl [Compound No. 106, N-(4-(3-chloro-5-trifluoromethyl-2-pyridyloxy)-3-methylphenyl)-2-chloro-5-nitrobenzamide] | 230 to 232 | 96 | 83
14 | O=C(Nc1ccc(Oc2ccc(C(F)(F)F)cn2)c(Cl)c1)c1cccc(C(F)(F)F)c1 [compound 7] | 127 to 129 | 100 | 100
15 | O=C(Nc1cccc(Oc2ccccc2)c1)c1cc([N+](=O)[O-])ccc1Cl [compound 40] | 103 | 100 | 100
16 | COc1cc(NC(=O)c2cc([N+](=O)[O-])ccc2Cl)ccc1Oc1ncc(C(F)(F)F)cc1Cl [compound 109] | 190 to 193 | 95 | 100
17 | N#Cc1cc(NC(=O)c2cc([N+](=O)[O-])ccc2Cl)ccc1Oc1ncc(C(F)(F)F)cc1Cl [compound 122] | 194 to 198 | 100 | 100
18 | Cc1cc(C23CC4CC(CC(C4)C2)C3)ccc1NC(=O)c1cc([N+](=O)[O-])ccc1Cl [Compound No. 1] | 219 | 90 | 96
19 | Cc1cc(C23CC4CC(CC(C4)C2)C3)ccc1NC(=O)c1cccc(Cl)c1[N+](=O)[O-] [compound 58] | 256 | 96 | 97
20 | O=C(Nc1ccc(S(=O)(=O)Nc2nccs2)cc1)c1cc([N+](=O)[O-])ccc1Cl [compound 142] | 140 to 147 | 99 | 95
21 | O=C(Nc1ccc(S(=O)(=O)Nc2ccccn2)cc1)c1cc([N+](=O)[O-])ccc1Cl [compound 136] | 178 to 181 | 100 | 98
22 | O=C(Nc1ccc(SCc2ccccc2)cc1)c1cc([N+](=O)[O-])ccc1Cl [compound 78] | 156 to 157 | 91 | 78
23 | Cc1cc(C23CC4CC(CC(C4)C2)C3)ccc1NC(=O)c1cccc(C#N)c1 [compound 50] | 83 | 98 | 95
24 | Cc1cc(Oc2ccc(C(F)(F)F)cc2)ccc1NC(=O)c1cc([N+](=O)[O-])ccc1Cl [compound 31] | 196 | 63 | 62

Now from value to compound, other results behind:

Row | melting point [°C] | Compound | inhibition at 100 ppm [1] [%] | inhibition at 100 ppm [2] [%]
25 | 203 | O=C(Nc1ccc(Oc2ncc(C(F)(F)F)cc2Cl)cc1)c1cc([N+](=O)[O-])ccc1Cl [compound 64] | 99 | 98
26 | 226 | O=C(c1ccccc1)c1ccc(NC(=O)c2cc([N+](=O)[O-])ccc2Cl)cc1 [compound 51] | 100 | 99
27 | 238 | Cc1cc(C23CC4CC(CC(C4)C2)C3)ccc1NS(=O)(=O)c1cc([N+](=O)[O-])ccc1Cl [Compound No. 48, N-(4-(1-adamantyl)-2-methylphenyl)-2-chloro-5-nitrobenzenesulfonamide] | 100 | 100
28 | 222 | Cc1cc(C23CC4CC(CC(C4)C2)C3)ccc1NC(=O)c1cccc([N+](=O)[O-])c1Cl [compound 60] | 93 | 96
29 | 116 | O=C(Nc1ccc(=O)n(-c2ncc(C(F)(F)F)cc2Cl)c1)c1cc([N+](=O)[O-])ccc1Cl [compound 144] | 100 | 99
30 | 212 to 216 | CN(c1ccc(NC(=O)c2cc([N+](=O)[O-])ccc2Cl)cc1)c1ncc(C(F)(F)F)cc1Cl [compound 133] | 100 | 99
31 | 203 to 206 | O=C(Nc1ccc(-c2ccccc2)cc1)c1cc([N+](=O)[O-])ccc1Cl [compound 83] | 76 | 90
32 | 273 to 276 | CN(c1cc(NC(=O)c2cc([N+](=O)[O-])ccc2Cl)ccc1O)c1ncc(C(F)(F)F)cc1Cl [compound 129] | 67 | 86
33 | 65 | CSc1ccc(Cl)c(C(=O)Nc2ccc(C34CC5CC(CC(C5)C3)C4)cc2C)c1 [compound 68] | 99 | 92
34 | 162 | CSc1ccc(NC(=O)c2cc([N+](=O)[O-])ccc2Cl)cc1 [compound 29] | 100 | 98
